For test [1], the target named is T1, E. coli NrdR (EcoNrdR) (Escherichia coli, UniProt P0A8D0).
T1 construct: full-length wild type, C-terminal His6 tag (pET30a(+)), E. coli BL21(DE3); tag not reported removed; co-purified nucleotides stripped for ITC (apo-NrdR); apo dimer, tetramer with ATP-dATP or ADP-dATP; SeMet version for 9FVR
Kind of test: ITC, one set of sites. The test is classed as binding. The text has this: ITC, one set of sites on E. coli NrdR (EcoNrdR)
In general terms: Isothermal titration calorimetry measures the heat released or taken up as one component is titrated into another.

Test [2] addresses T1, E. coli NrdR (EcoNrdR). The test can be described thus: X-ray crystal structure, […] Å. The test is classed as binding. The conditions noted are these: with dATP and Mg2+; inner site.

T1 sequence (P0A8D0 whole entry): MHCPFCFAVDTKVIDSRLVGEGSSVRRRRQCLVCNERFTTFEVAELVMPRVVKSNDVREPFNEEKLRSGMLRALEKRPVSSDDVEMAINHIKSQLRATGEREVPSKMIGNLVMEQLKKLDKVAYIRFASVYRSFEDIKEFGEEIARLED

With `Nc1ncnc2c1ncn2[C@@H]1O[C@H](COP(=O)(O)OP(=O)(O)OP(=O)(O)O)[C@@H](O)[C@H]1O` [ATP], binding at E. coli NrdR (EcoNrdR) [1] was put at a Kd of 346 ± 93 nM.
Same read-out and setting: with `Nc1ncnc2c1ncn2[C@H]1C[C@H](O)[C@@H](COP(=O)(O)OP(=O)(O)OP(=O)(O)O)O1` [dATP] the figure was 610 ± 231 nM.
For the compound `Nc1ncnc2c1ncn2[C@@H]1O[C@H](COP(=O)(O)OP(=O)(O)NP(=O)(O)O)[C@@H](O)[C@H]1O` [AMPPNP], the “X-ray crystal structure, 2.33 Å” value on E. coli NrdR (EcoNrdR) [2] was “In complex with dATP and AMPPNP, EcoNrdR is a tetramer”.
For the compound `Nc1ncnc2c1ncn2[C@@H]1O[C@H](COP(=O)(O)OP(=O)(O)O)[C@@H](O)[C@H]1O` [ADP], binding at E. coli NrdR (EcoNrdR) [1] was characterised by a dissociation constant (Kd) of 343 ± 19 nM.

The Kd is the free concentration of one partner at which half of the binding sites on the other are occupied at equilibrium, for simple one-to-one binding. Read a low Kd as higher affinity.
